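Each compound was tested at five concentrations against cells in 96-well plates for 48 hours. GI50 marks 50% less growth.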 The source made the active and inactive calls. Cut-off read from the data, not from the text of the source: active = GI50 up to about 1.1 µM and inactive = higher.
Key:
Experiment in all cases: NCI-60 cell line screen, 48 h
[1] = test system: COLO 205
[2] = test system: HT-29
[3] = test system: Hs-578T
[4] = test system: K562
[5] = test system: KM12
[6] = test system: MDA-MB-435
[7] = test system: NCI-H226
[8] = test system: NCI/ADR-RES
[9] = test system: OVCAR-8
[10] = test system: SF-268
[11] = test system: SF-539
[12] = test system: SR
[13] = test system: SW-620
[14] = test system: T47D
[15] = test system: UACC-257
[16] = test system: UACC-62
[17] = test system: M14
[18] = test system: SK-OV-3
[19] = test system: A498

Measured: GI50

COC1=C2C[C@](OC)(C#CC=CC#CC2O)CC1(C)C (stereo partly drawn)
inactive: [1] > 100 µM | [2] > 100 µM | [3] > 100 µM | [4] 54.8 µM | [5] > 100 µM | [6] > 100 µM | [7] > 100 µM | [8] > 100 µM | [9] > 100 µM | [10] > 100 µM | [11] > 100 µM | [12] 56.4 µM | [13] > 100 µM | [14] > 100 µM | [15] > 100 µM | [16] 34.6 µM

COC(=O)C1(NC(=O)C(CC(=O)OCc2ccccc2)NC(=O)OCc2ccccc2)CCCCCC1 (stereo not drawn)
inactive: [1] 21.1 µM | [2] 22 µM | [3] 15.6 µM | [4] 23.2 µM | [5] 50.1 µM | [17] > 100 µM | [6] 28.8 µM | [7] 29.4 µM | [8] 21 µM | [9] 27.2 µM | [10] 42 µM | [11] 23.1 µM | [18] 35.4 µM | [12] 18.4 µM | [13] 42.8 µM | [14] 30.8 µM | [16] 16.4 µM

COc1ccc(-n2c3c(c4c(CN(C)C)c(O)ccc42)C(=O)c2ccccc2C3=O)cc1
inactive: [19] 1.21 µM | [1] 8.09 µM | [2] 2.19 µM | [3] 30.5 µM | [4] 2.09 µM | [5] 3.2 µM | [17] 3.54 µM | [6] 6.93 µM | [8] 5.73 µM | [9] 3.26 µM | [10] 10.1 µM | [11] 2.04 µM | [18] 2.48 µM | [12] 2.45 µM | [13] 2.07 µM | [14] 2.67 µM | [15] 18.8 µM | [16] 4.41 µM

COC(=O)C1CCC(=O)N1CN(C(C)=O)c1cccc(O)c1 (stereo not drawn)
inactive: [19] > 100 µM | [1] > 100 µM | [2] > 100 µM | [3] > 100 µM | [4] > 100 µM | [5] > 100 µM | [17] > 100 µM | [6] > 100 µM | [7] > 100 µM | [8] > 100 µM | [9] > 100 µM | [10] > 100 µM | [11] > 100 µM | [18] > 100 µM | [13] > 100 µM | [14] > 100 µM | [15] > 100 µM | [16] > 100 µM

N#Cc1[nH]c(=O)n(-c2cccc3ccccc23)c1N
inactive: [19] > 10 µM | [1] > 10 µM | [2] > 10 µM | [3] > 10 µM | [4] > 10 µM | [5] > 10 µM | [17] > 10 µM | [6] > 10 µM | [8] > 10 µM | [9] > 10 µM | [10] > 10 µM | [11] > 10 µM | [18] > 10 µM | [12] > 10 µM | [13] > 10 µM | [14] > 10 µM | [15] > 10 µM | [16] > 10 µM

CCOP(=O)(OCC)C(C)(C)OC(=O)NC#N
inactive: [1] > 100 µM | [2] > 100 µM | [3] > 100 µM | [4] > 100 µM | [5] > 100 µM | [17] > 100 µM | [6] > 100 µM | [7] > 100 µM | [8] > 100 µM | [9] > 100 µM | [10] > 100 µM | [11] > 100 µM | [18] > 100 µM | [12] > 100 µM | [13] > 100 µM | [14] > 100 µM | [15] > 100 µM | [16] > 100 µM

CNC(=O)C(NC(=O)[C@H](CC(C)C)NC(=O)[C@@H](S)CCN1C(=O)N(C)C(C)(C)C1=O)C(C)(C)C (stereo partly drawn)
inactive: [19] > 100 µM | [2] > 100 µM | [3] > 100 µM | [4] 79.6 µM | [5] > 100 µM | [17] > 100 µM | [6] > 100 µM | [7] > 100 µM | [8] > 100 µM | [9] > 100 µM | [10] > 100 µM | [18] > 100 µM | [12] > 100 µM | [13] > 100 µM | [14] > 100 µM | [15] > 100 µM | [16] > 100 µM

COc1ccc(/C=C2\N=C(N3CCOCC3)NC2=O)cc1
inactive: [1] > 100 µM | [2] > 100 µM | [3] > 100 µM | [5] > 100 µM | [17] > 100 µM | [6] > 100 µM | [7] > 100 µM | [8] > 100 µM | [9] > 100 µM | [10] > 100 µM | [11] > 100 µM | [18] > 100 µM | [12] > 100 µM | [13] > 100 µM | [14] > 100 µM | [15] > 100 µM | [16] > 100 µM

Oc1c(Cl)cc(CN(Cc2cc(Cl)c(O)c(Cl)c2)C2CCCCC2)cc1Cl
inactive: [19] > 100 µM | [1] > 100 µM | [2] > 100 µM | [3] > 100 µM | [4] > 100 µM | [5] > 100 µM | [17] > 100 µM | [6] > 100 µM | [8] > 100 µM | [9] > 100 µM | [10] > 100 µM | [11] > 100 µM | [18] > 100 µM | [12] > 100 µM | [13] > 100 µM | [14] > 100 µM | [15] > 100 µM | [16] > 100 µM

CC(C)(O)/C=C\P(=O)(O)O
inactive: [1] > 100 µM | [2] > 100 µM | [3] > 100 µM | [4] > 100 µM | [5] > 100 µM | [17] > 100 µM | [6] > 100 µM | [7] > 100 µM | [8] > 100 µM | [9] > 100 µM | [10] > 100 µM | [11] > 100 µM | [18] > 100 µM | [12] > 100 µM | [13] > 100 µM | [14] 7.1 µM | [15] > 100 µM | [16] > 100 µM

Nc1ccc2c(c1)N(C(=O)c1cc3cc(NC(=O)c4cc5ccccc5o4)ccc3[nH]1)CC2CCl (stereo not drawn)
active: [19] 0.16 µM | [1] 0.0904 µM | [2] 0.129 µM | [3] 0.293 µM | [4] 0.0662 µM | [5] 0.115 µM | [17] 0.12 µM | [6] 0.162 µM | [7] 0.13 µM | [8] 0.0332 µM | [9] 0.0397 µM | [10] 0.0498 µM | [11] 0.0191 µM | [18] 0.128 µM | [13] 0.0973 µM | [14] 0.114 µM | [15] 0.113 µM | [16] 0.112 µM

c1ccc2c(c1)c1c(c3ccccc32)CN2CCCC2C1 (stereo not drawn)
inactive: [19] 3.72 µM | [1] 3.63 µM | [2] 3.72 µM | [3] 2.38 µM | [4] 8.39 µM | [5] 4.2 µM | [17] 3.67 µM | [6] 4.42 µM | [8] 3.94 µM | [9] 3.17 µM | [10] 2.92 µM | [11] 2.9 µM | [18] 7.52 µM | [12] 4.89 µM | [13] 2.45 µM | [14] 1.5 µM | [15] 4.05 µM | [16] 2.33 µM

COc1cc(C(c2ccc3c(c2)OCO3)N2C(=O)CCC2C(=O)O)cc(OC)c1OC (stereo not drawn)
inactive: [19] > 100 µM | [1] > 100 µM | [2] > 100 µM | [3] > 100 µM | [4] > 100 µM | [5] > 100 µM | [17] > 100 µM | [6] > 100 µM | [7] > 100 µM | [8] > 100 µM | [9] > 100 µM | [10] > 100 µM | [11] > 100 µM | [18] > 100 µM | [13] > 100 µM | [14] > 100 µM | [15] > 100 µM | [16] > 100 µM

COc1ccc(/N=C2\C(=N/c3ccc(OC)cc3)N(S(=O)(=O)c3ccccc3)C(=S)N2c2ccc(OC)cc2)cc1
inactive: [1] > 100 µM | [3] 89.1 µM | [4] > 100 µM | [5] > 100 µM | [17] 25.1 µM | [6] > 100 µM | [7] > 100 µM | [8] > 100 µM | [9] > 100 µM | [10] > 100 µM | [11] > 100 µM | [18] > 100 µM | [12] > 100 µM | [13] > 100 µM | [14] > 100 µM | [16] > 100 µM

C=C(C)[C@H]1C2=CC(C(=O)OC)=C(C[C@H](C(=C)C)[C@@H](O)[C@@H](O)C3=C[C@H]1OC3=O)O2
inactive: [19] > 100 µM | [1] > 100 µM | [2] > 100 µM | [3] > 100 µM | [4] > 100 µM | [5] > 100 µM | [17] > 100 µM | [6] > 100 µM | [7] > 100 µM | [8] > 100 µM | [9] > 100 µM | [10] > 100 µM | [11] > 100 µM | [18] > 100 µM | [13] > 100 µM | [14] > 100 µM | [15] > 100 µM | [16] > 100 µM

— ChEMBL document CHEMBL1201862, “PubChem BioAssay data set” (2004)
